Assay results as given in patent US20100310542A1, “Pharmaceutical Compositions for treating wouds and related methods” (HEALOR LTD., priority 2007, published 2010).

Columns and labels:
[1] = tested on: full thickness skin incisions; assay: incision wound healing in mice, percent of healed wounds; assay type: in vivo, C57BL/6J mice; conditions: agent alone, all formulations (A-C); daily, 7 days; vs groups treated with formulations alone
Procedure: In vivo incision wound generation and inducement of inflammation: Full thickness (20 mm long) skin incisions were performed on the upper back of anesthetized C57BL/6J mice (6 mice per group). […] the incision, wounds were treated daily with insulin (10^−6 M; 0.1 units/ml); pseudosubstrate PKCα peptide, 1 μM (PKCα inhibitor); or Insulin+PKCα inhibitor (Myr-pseudosubstrate PKCα peptide, 1 μM and insulin 0.1 units) applied directly on the wounds in the various formulations (Formulations A-C) as described above. After 7 days, wounds were excised and the percentage of healed wounds was evaluated by examining the morphology and histology of the wounds. Results are presented as percent of healed wounds relative to the total number of wounds per group. […] Full thickness (20 mm long) skin incisions were performed on the upper back of anesthetized C57BL/6J mice (6 mice per group). […] After 7 days, wounds were excised and the percentage of healed wounds was evaluated by examining the morphology and histology of the wounds. […]

[2] = tested on: primary murine keratinocytes; assay: in vitro scratch assay, wound closure with insulin in Formulation C and D; assay type: cell-based; conditions: insulin 0.1 units/ml, 48 hours
Procedure: Murine keratinocytes were isolated and cultured as described above. After five days, confluent keratinocytes were subjected in vitro scratch assays to follow wound healing. Following wound formation Insulin (insulin 10^−6 M; 0.1 units/ml) was added to the cell cultures in the various formulations (Formulation C and D) described above. Wound closure was followed for 48 hours. This experiment was carried out in triplicate. Wound closure is presented as the percent of closure following 48 hours of treatment in FIG. 6B.
Cultures of 5 day old, confluent keratinocytes were subjected to in vitro scratch assays and wound healing was examined. Following wound formation, Insulin (10^−6 M; 0.1 units/ml) was added to cell cultures in the various formulations (Formulation C and D) as described above. Wound closure was followed for 48 hours. Experiments were carried out in triplicate. (A) Photographs of representative cell culture dishes are presented. (B) Wound closure is presented as percent of closure following 48 hours of treatment. (C) Proliferation assays were performed on cultured cells in the wound using the thymidine incorporation proliferation assay described above.

[3] = tested on: primary murine keratinocytes; assay: cell proliferation by [3H]thymidine incorporation; assay type: cell-based; conditions: insulin 0.1 units/ml
Procedure: Cell proliferation: Cell proliferation was measured by [^3H]thymidine incorporation in 6 well plates. Cells were pulsed with [^3H]thymidine (3 μCi/ml) for 1 h. After incubation, cells were washed five times with PBS and 5% TCA was added into each well for 1 h. The solution was removed and cells were solubilized in 1 M NaOH. The labeled thymidine incorporated into cells was counted in a ^3H-window of TRI-CARB™ liquid scintillation counter.
Next, proliferation of cultured cells in the wound was evaluated utilizing thymidine incorporation (FIG. 6C). Cell proliferation was measured by [^3H]thymidine incorporation in 6 well plates. Cells were placed in […] and pulsed with [^3H]thymidine (3 μCi/ml) for 1 h. After incubation, cells were washed five times with PBS and 5% TCA was added to each well for 1 h. This solution was then removed and cells were solubilized in 1 M NaOH. The labeled thymidine incorporated into the cells was counted in the ^3H-window of a liquid scintillation counter. As shown in FIGS. 6A-C the addition of KCl changed insulin induced wound closure and cell proliferation.
Cultures of 5 day old, confluent keratinocytes were subjected to in vitro scratch assays and wound healing was examined. Following wound formation, Insulin (10^−6 M; 0.1 units/ml) was added to cell cultures in the various formulations (Formulation C and D) as described above. […]

[4] = tested on: keratinocytes from the tails of adult mice; assay: cell proliferation, Rapid Cell Proliferation Kit, pre-incubation in medium B; assay type: cell-based; conditions: pre-incubation of cells in medium B for 24 hours vs treatment parallel to medium change
Procedure: Medium A and B are both EMEM eagle's minimal essential medium from Biological Industries (Israel) containing 8% CHELEX™ treated fetal bovine serum. CHELEX™ is a strong chelator which binds free Ca^2+ and Mg^2+ ions to prevent these ions from being bioavailable to the cultured cells. […] The influence of pre-incubation of keratinocytes in medium B on the effects of Insulin and Insulin+PKCα inhibitor on cell proliferation in vitro was evaluated. Cultures of 5 day old, confluent keratinocytes from the tails of adult mice (7-10 months up to 2 years) were allowed to proliferate in vitro. After 5 days in MEM (medium A), the growth medium was changed to medium B (described above). Parallel to the medium changing or 24 hours following it, cells were treated with Insulin or with Insulin+PKCα inhibitor. The proliferation rate of the cells was measured with the commercially available Rapid Cell Proliferation Kit (Cat. No. QIA127; Calbiochem). The Experiment was carried out in hexaplicate. Results are presented as percent of untreated cells (control). […] Cultures of 5 day old, confluent keratinocytes prepared from the tails of adult mice (7-10 months up to 2 years) were subjected to proliferation assays utilizing a commercially available Rapid Cell Proliferation Kit (Cat. No. QIA127; Calbiochem). After 5 days in MEM, the growth medium was changed to medium B as described above. […]

[5] = Formulation D (Tris + KCl 0.4 mg/ml)

Q: Which “healing of wounds (percent of healed wounds)” value [1] does the source give for “Insulin: human recombinant insulin, identified as insulin, USP insulin or Ins USP” here?
A: Its value is “did not promote wound healing efficacy”.

Q: And the “wound closure in vitro” value ([2]; Formulation C (Tris))?
A: The value was “inhibited insulin induced wound closure”.

Q: And the “wound closure in vitro” value [2, 5]?
A: The value was “induced partial wound closure”.

Q: What about the “cell proliferation (thymidine incorporation)” value ([3]; Formulation C (Tris)) of the same substance?
A: Its value is “inhibited insulin induced wound closure and cell proliferation”.

Q: And the “cell proliferation (thymidine incorporation)” value [3, 5]?
A: The value was “induced partial wound closure and cell proliferation”.

Q: And the “effect on cell proliferation (percent of untreated cells)” value [4]?
A: Its value is “enhances the effects”.
